Consider 2 compounds from patent publication US9018187B2, “Cationic lipids and methods for the delivery of therapeutic agents” (Protiva Biotherapeutics, Inc., priority 2009, dated 2015).

One may read the pKa as the negative logarithm of the acid dissociation constant.

“Also recorded” adds a separate entry of the source.

A short description of series [1]: Characterization of SNALP formulations (size, polydispersity, encapsulation). It counts as physicochemical. The following applies: Table 5; for Initial Encaps. (%): 7:54 SNALP (PEG750-C-DMA 6.76 | cationic 54.06 | Chol 32.43 | DPPC 6.75 mol %) with PLK-1 siRNA; for Finished Product Encaps. (%) / Finished Product Poly / Finished Product Z-Avg (nm): 7:54 SNALP with PLK-1 siRNA. As for the experimental part: In the context of nucleic acids, full encapsulation may be determined by performing a membrane-impermeable fluorescent dye exclusion assay, which uses a dye that has enhanced fluorescence when associated with nucleic acid. Specific dyes such as OliGreen® and RiboGreen® (Invitrogen Corp.; Carlsbad, Calif.) are available for the quantitative determination of plasmid DNA, single-stranded deoxyribonucleotides, and/or single- or double-stranded ribonucleotides. Encapsulation is determined by adding the dye to a liposomal formulation, measuring the resulting fluorescence, and comparing it to the fluorescence observed upon addition of a small amount of nonionic detergent. Detergent-mediated disruption of the liposomal bilayer releases the encapsulated nucleic acid, allowing it to interact with the membrane-impermeable dye. Nucleic acid encapsulation may be calculated as E=(Io−I)Io, where I and Io refer to the fluorescence intensities before and after the addition of detergent (see, Wheeler et al., Gene Ther., 6:271-281 (1999)). […]
(§1) Each SNALP formulation was administered by intravenous (IV) injection at 3 mg/kg into Scid mice containing Hep3B tumors (n=4 per group). Tumor tissue was colleted at 24 hours after SNALP administration and tumor PLK-1 mRNA levels were evaluated by performing a PLK-1/GAPDH QG assay. Table 5 provides a characterization of the SNALP formulations used in this in vivo study.

The next series relates to tumor PLK-1 mRNA. The series can be described thus: Tumor PLK-1 mRNA knockdown by 7:54 SNALP in Scid mice containing Hep3B tumors. The class given is in vivo, mouse. The following applies: FIG. 11, 7:54 SNALP with PLK-1 siRNA, IV 3 mg/kg, 24 hours, PLK-1/GAPDH QG assay. As for the experimental part: 7:54 SNALP formulations containing encapsulated PLK-1 siRNA were prepared with the following cationic lipids: (1) DLinDMA; (2) TLinDMA; (3) DLin-C1K-DMA (“DLin-K-DMA”); (4) DPanDMA; (5) DPan-C2-DMA (“C2-DPanDMA”); (6) DPan-C2K-DMA; (7) DPan-C3K-DMA; and (8) DPan-C1K6-DMA.
as §1

The subject of a further series is liver ApoB mRNA. Kind of series: Liver ApoB mRNA knockdown by 1:57 SNALP with APOB siRNA in mice. It counts as in vivo, mouse. The following applies: 1:57 SNALP, 6:1 L:D, IV 0.1 mg/kg, female Balb/c mice, 48 hours. As for the experimental part:
Each SNALP formulation was administered by intravenous (IV) injection at 0.1 mg/kg into female Balb/c mice (n=3 per group). Plasma total cholesterol and/or liver ApoB mRNA levels were evaluated at 48 hours after SNALP administration. For dose response studies, SNALP formulations were administered by IV injection at 0.01 mg/kg, 0.03 mg/kg, or 0.1 mg/kg into female Balb/c mice (n=3 per group). Liver ApoB mRNA levels were evaluated at 48 hours after SNALP administration.
1:57 SNALP formulations containing encapsulated APOB siRNA at a 6:1 lipid:drug (L:D) ratio were prepared with the following cationic lipids: (1) DLinDMA; (2) Linoleyl/Linolenyl DMA (“Lin/LenDMA”); (3) DPanDMA; (4) TLinDMA; (5) Linoleyl/C6:0 DMA (“Lin/6:0”); (6) C2-DPanDMA; (7) DLin-C2K-Pip (30H); and (8) DHep-C2K-DMA.
Each SNALP formulation was administered by intravenous (IV) injection at 0.1 mg/kg into female Balb/c mice (n=3 per group). Livers were colleted at 48 hours after SNALP administration and liver ApoB mRNA levels were evaluated by performing an ApoB/GAPDH QG assay. Table 2 provides a characterization of the SNALP formulations used in this in vivo study.
In another study, 1:57 SNALP formulations containing encapsulated APOB siRNA at a 6:1 L:D ratio were prepared with the following cationic lipids: (1) DLinDMA; (2) C2-DPanDMA; (3) DPan-C2K-DMA; (4) DPan-C3K-DMA; and (5) DPan-C1K6-DMA.
Each SNALP formulation was administered by intravenous (IV) injection at 0.1 mg/kg into female Balb/c mice (n=3 per group). Livers were colleted at 48 hours after SNALP administration and liver ApoB mRNA levels were evaluated by performing an ApoB/GAPDH QG assay. Table 3 provides a characterization of the SNALP formulations used in this in vivo study.
For dose response studies, SNALP formulations were administered by IV injection at 0.01 mg/kg, 0.033 mg/kg, or 0.1 mg/kg into female Balb/c mice (n=3 per group). Liver ApoB mRNA levels were evaluated at 48 hours after SNALP administration by a branched DNA assay (QuantiGene assay) to assess ApoB mRNA relative to the housekeeping gene GAPDH.

Series [2] can be described thus: TNS assay, apparent pKa of cationic lipid in 1:57 SNALP. The following applies: 1:57 SNALP formulation containing encapsulated APOB siRNA.
Description: 1:57 SNALP formulations containing encapsulated APOB siRNA were prepared as described in Section VI above with the following cationic lipids: (1) DLinDMA; (2) DLenDMA; (3) γ-DLenDMA (“g-DLenDMA”); (4) C2-DLinDAP; (5) DLinPip (4-OH); (6) DLinPip; (7) DLinPip (3-OH); (8) DLinDEA; (9) DDocDMA; (10) DAraDMA; (11) TLinDMA; (12) DLin-C2K Pip (30H); (13) DHep-C2K-DMA; (14) DPanDMA; (15) C2-DPanDMA (“DPan-C2-DMA”); (16) DPan-C2K-DMA; (17) DPan-C3K-DMA; (18) DPan-K6-DMA (“DPan-C1K6-DMA”); and (19) C2-TLinDMA.
The apparent pKa of the cationic lipids present in these SNALP formulations was determined using a 2-(p-toluidinyl)-naphthalene-6-sodium sulfonate (TNS) assay. TNS is a negatively-charged indicator of membrane potential that is electrostatically attracted to positively charged membranes (see, Bailey and Cullis, Biochemistry, 33 12573-80 (1994)). Subsequent adsorption to the lipid membrane results in the immediate environment of the TNS becoming more lipophilic, removing the water molecules that otherwise quench TNS fluorescence. As a result, TNS measures the surface potential of the particle, wherein the more positive the surface potential, the greater the level of fluorescence. The surface pKa values of each SNALP formulation were determined by varying the local pH in the presence of TNS. By plotting fluorescence versus pH, the pKa of the cationic lipid can be estimated in the particle as the pH where fluorescence equals 50% of total fluorescence.

Regarding `CC(C)CCCC(C)CCCC(C)CCCC(C)CCOCC(CCN(C)C)OCCC(C)CCCC(C)CCCC(C)CCCC(C)C` (centres unmarked) [Compound C2-DPanDMA, 1,2-Diphytanyloxy-(N,N-dimethyl)-butyl-4-amine], in series [1], the “Initial Encaps. (%)” value worked out at 86%, the “Finished Product Encaps. (%)” value was determined as 100%, the “Finished Product Poly” value was 0.06 and the “Finished Product Z-Avg (nm)” value is 81 nm. For the same compound, the “tumor PLK-1 mRNA silencing activity” value with tumor PLK-1 mRNA is given as “no difference in silencing activity”. Also, in the series on liver ApoB mRNA (Example 16, FIG. 8, ApoB/GAPDH QG assay), the “ApoB silencing activity (liver ApoB mRNA)” value is “more potent compared to DLinDMA and substantially more potent compared to DPanDMA”. Moreover, the “ApoB silencing activity (liver ApoB mRNA)” value with liver ApoB mRNA (Example 16 second study, FIG. 9, 0.1 mg/kg) is on record as “more potent compared to DLinDMA; also recorded: greatest activity of all the phytanyl-containing cationic lipids tested”. The pKa in series [2] was ~6.1.
With `CC(C)CCCC(C)CCCC(C)CCCC(C)CCOCC(CN(C)C)OCCC(C)CCCC(C)CCCC(C)CCCC(C)C` (centres unmarked) [DPanDMA, 1,2-Diphytanyloxy-3-(N,N-dimethyl)-propylamine], in series [1], the “Initial Encaps. (%)” value is given as 75%, the “Finished Product Encaps. (%)” value came to 100%, the “Finished Product Poly” value came out at 0.08 and the “Finished Product Z-Avg (nm)” value was found to be 76 nm. In the series with tumor PLK-1 mRNA, the “tumor PLK-1 mRNA silencing activity” value is reported as “no difference in silencing activity”. Moreover, in series [2], the pKa turned out to be 5.5.
